In ChEMBL document CHEMBL4387741, “Optimization of novel reversible Bruton's tyrosine kinase inhibitors identified using Tethering-fragment-based screens” (Bioorg Med Chem, 2019) one finds inhibition data, which are given here for 2 compounds.

In assay [1] the target is Serine/threonine-protein kinase B-raf (Homo sapiens) (UniProt P15056). In words: Inhibition of wild-type human partial length BRAF (S429 to E741 residues) expressed in mammalian expression system at 10 uM by Kinomescan method relative to control.
The target of assay [2] is Serine/threonine-protein kinase Chk1 (Homo sapiens) (UniProt O14757). In words: Inhibition of wild-type human partial length CHEK1 (M1 to G289 residues) expressed in bacterial expression system at 10 uM by Kinomescan method relative to control.
The target in assay [3] is Discoidin domain-containing receptor 2 (Homo sapiens) (UniProt Q16832). As to the kind of experiment: Inhibition of wild-type human partial length DDR2 (V555 to E855 residues) expressed in mammalian expression system at 10 uM by Kinomescan method relative to control.
In assay [4] the test system is Receptor-type tyrosine-protein kinase FLT3 (Homo sapiens), P36888 [N841I]. In words: Inhibition of human partial length FLT3 N841I mutant (V592 to Y969 residues) expressed in bacterial expression system at 10 uM by Kinomescan method relative to control.
Assay [5] concerns the target Inhibitor of nuclear factor kappa-B kinase subunit epsilon (Homo sapiens) (UniProt Q14164). In words: Inhibition of wild-type human full length IKK-epsilon (M1 to V716 residues) expressed in mammalian expression system at 10 uM by Kinomescan method relative to control.
Assay [6] addresses Tyrosine-protein kinase Lyn (Homo sapiens) (UniProt P07948). In words: Inhibition of wild-type human partial length LYN (C219 to Q511 residues) expressed in bacterial expression system at 10 uM by Kinomescan method relative to control.
For assay [7], the target named is Misshapen-like kinase 1 (Homo sapiens) (UniProt Q8N4C8). In words: Inhibition of wild-type human partial length MINK (M1 to K312 residues) expressed in mammalian expression system at 10 uM by Kinomescan method relative to control.
Chain of Misshapen-like kinase 1 (Homo sapiens) (Q8N4C8 whole entry, looked up, the tested form may be a part): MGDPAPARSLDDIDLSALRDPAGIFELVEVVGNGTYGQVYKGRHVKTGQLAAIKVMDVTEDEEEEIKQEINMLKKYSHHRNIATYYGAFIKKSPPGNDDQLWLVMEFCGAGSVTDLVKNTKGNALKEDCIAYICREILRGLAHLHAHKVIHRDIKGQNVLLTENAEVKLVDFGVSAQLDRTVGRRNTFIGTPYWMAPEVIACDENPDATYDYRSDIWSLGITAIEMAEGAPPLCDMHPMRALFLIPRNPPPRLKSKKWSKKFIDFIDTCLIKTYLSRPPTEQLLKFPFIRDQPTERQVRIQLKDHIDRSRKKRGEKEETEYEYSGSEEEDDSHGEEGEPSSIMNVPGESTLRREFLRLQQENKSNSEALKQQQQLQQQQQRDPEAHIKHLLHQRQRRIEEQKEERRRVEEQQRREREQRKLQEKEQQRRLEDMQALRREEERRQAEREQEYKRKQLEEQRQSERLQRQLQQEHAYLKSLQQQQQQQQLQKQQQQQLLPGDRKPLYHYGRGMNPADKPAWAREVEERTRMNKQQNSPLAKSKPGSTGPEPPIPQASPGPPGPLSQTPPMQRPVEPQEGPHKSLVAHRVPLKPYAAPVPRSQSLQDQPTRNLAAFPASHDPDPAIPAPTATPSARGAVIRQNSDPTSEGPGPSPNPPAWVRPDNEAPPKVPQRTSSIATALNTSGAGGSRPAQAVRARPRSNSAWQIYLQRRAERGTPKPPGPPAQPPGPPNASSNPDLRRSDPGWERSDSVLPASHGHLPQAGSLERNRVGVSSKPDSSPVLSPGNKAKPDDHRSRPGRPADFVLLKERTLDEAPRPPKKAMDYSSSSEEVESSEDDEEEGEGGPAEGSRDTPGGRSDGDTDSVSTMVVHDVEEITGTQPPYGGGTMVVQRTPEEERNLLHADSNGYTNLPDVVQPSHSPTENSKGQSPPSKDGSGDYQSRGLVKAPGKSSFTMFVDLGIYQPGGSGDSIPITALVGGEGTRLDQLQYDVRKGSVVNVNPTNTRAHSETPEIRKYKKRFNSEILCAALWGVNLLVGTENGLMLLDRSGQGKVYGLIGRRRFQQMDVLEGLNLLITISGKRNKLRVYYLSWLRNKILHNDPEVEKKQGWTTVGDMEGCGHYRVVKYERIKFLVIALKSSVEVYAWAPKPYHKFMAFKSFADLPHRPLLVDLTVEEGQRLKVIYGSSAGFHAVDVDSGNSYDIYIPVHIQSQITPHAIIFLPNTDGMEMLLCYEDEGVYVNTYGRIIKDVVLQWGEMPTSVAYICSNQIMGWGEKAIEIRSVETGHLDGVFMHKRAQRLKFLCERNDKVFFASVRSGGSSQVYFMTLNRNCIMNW
Assay [8] has as its target 3-phosphoinositide-dependent protein kinase 1 (Homo sapiens) (UniProt O15530). In words: Inhibition of wild-type human full length PDPK1 (M1 to Q556 residues) expressed in bacterial expression system at 10 uM by Kinomescan method relative to control.
The test system of assay [9] is Phosphatidylinositol 4,5-bisphosphate 3-kinase catalytic subunit alpha isoform (Homo sapiens), P42336 [E545A]. As to the kind of experiment: Inhibition of human partial length PIK3CA E545A mutant (R108 to N1068 residues) expressed in mammalian expression system at 10 uM by Kinomescan method relative to control.
The target in assay [10] is Serine/threonine-protein kinase N2 (Homo sapiens) (UniProt Q16513). In words: Inhibition of wild-type human partial length PKN2 (E634 to C984 residues) expressed in bacterial expression system at 10 uM by Kinomescan method relative to control.
Chain of Serine/threonine-protein kinase N2 (Homo sapiens) (Q16513 whole entry, looked up, the tested form may be a part): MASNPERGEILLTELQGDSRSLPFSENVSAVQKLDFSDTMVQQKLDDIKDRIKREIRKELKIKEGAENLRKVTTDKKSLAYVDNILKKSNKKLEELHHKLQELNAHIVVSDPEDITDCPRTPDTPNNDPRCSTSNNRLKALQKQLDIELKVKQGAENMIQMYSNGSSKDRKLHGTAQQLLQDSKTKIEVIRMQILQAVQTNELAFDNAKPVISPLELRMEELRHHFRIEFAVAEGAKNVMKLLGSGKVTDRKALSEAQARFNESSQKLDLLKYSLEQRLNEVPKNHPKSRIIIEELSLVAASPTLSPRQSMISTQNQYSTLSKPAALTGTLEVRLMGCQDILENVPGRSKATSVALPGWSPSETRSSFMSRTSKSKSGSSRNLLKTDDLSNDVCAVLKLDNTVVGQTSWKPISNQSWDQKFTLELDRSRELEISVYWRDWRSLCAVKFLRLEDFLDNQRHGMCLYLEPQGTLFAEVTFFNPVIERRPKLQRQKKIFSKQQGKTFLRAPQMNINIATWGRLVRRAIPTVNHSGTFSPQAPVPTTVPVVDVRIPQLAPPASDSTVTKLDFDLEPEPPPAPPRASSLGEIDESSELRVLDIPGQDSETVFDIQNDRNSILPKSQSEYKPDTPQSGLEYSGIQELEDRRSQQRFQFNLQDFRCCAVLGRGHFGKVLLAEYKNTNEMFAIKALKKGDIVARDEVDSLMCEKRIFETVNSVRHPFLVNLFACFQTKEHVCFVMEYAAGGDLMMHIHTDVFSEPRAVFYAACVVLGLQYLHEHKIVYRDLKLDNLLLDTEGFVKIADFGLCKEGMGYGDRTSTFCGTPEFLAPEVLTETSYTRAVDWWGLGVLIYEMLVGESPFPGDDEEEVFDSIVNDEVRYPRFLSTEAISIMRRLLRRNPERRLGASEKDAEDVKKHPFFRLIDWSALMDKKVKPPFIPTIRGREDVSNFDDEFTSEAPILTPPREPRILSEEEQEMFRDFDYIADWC
Assay [11] has as its target Ribosomal protein S6 kinase alpha-1 (Homo sapiens) (UniProt Q15418). As to the kind of experiment: Inhibition of wild-type human partial length C-terminal RSK1 kinase domain 2 (P360 to L681 residues) expressed in bacterial expression system at 10 uM by Kinomescan method relative to control.
The target of assay [12] is Serine/threonine-protein kinase Sgk2 (Homo sapiens) (UniProt Q9HBY8). As to the kind of experiment: Inhibition of wild-type human partial length SGK2 (L54 to C427 residues) expressed in mammalian expression system at 10 uM by Kinomescan method relative to control.
Assay [13] concerns the target Serine/threonine-protein kinase TAO1 (Homo sapiens) (UniProt Q7L7X3). As to the kind of experiment: Inhibition of wild-type human partial length TAOK1 (M1 to A320 residues) expressed in mammalian expression system at 10 uM by Kinomescan method relative to control.
The target of assay [14] is Testis-specific serine/threonine-protein kinase 1 (Homo sapiens) (UniProt Q9BXA7). In words: Inhibition of wild-type human full length TSSK1B (M1 to Q367 residues) expressed in bacterial expression system at 10 uM by Kinomescan method relative to control.
For assay [15], the target named is Death-associated protein kinase 2 (Homo sapiens) (UniProt Q9UIK4). In words: Inhibition of wild-type human full length DAPK2 (M1 to S370 residues) expressed in bacterial expression system at 1 uM by Kinomescan method relative to control.
Chain of Death-associated protein kinase 2 (Homo sapiens) (Q9UIK4 whole entry, looked up, the tested form may be a part): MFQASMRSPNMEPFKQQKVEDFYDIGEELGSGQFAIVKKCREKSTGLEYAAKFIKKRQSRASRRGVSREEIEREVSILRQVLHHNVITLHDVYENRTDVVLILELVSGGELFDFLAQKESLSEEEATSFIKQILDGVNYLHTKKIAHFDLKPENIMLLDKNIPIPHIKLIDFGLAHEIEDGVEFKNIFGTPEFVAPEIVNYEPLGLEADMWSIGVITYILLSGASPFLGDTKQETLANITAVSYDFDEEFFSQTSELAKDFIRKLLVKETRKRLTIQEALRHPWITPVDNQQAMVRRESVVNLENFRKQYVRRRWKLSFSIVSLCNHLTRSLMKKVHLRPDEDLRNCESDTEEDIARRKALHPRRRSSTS
Assay [16] has as its target Cyclin-G-associated kinase (Homo sapiens) (UniProt O14976). In words: Inhibition of wild-type human partial length GAK (G13 to Y338 residues) expressed in bacterial expression system at 1 uM by Kinomescan method relative to control.
In assay [17] the target is Serine/threonine-protein kinase haspin (Homo sapiens) (UniProt Q8TF76). In words: Inhibition of wild-type human partial length HASPIN (I452 to K798 residues) expressed in mammalian expression system at 1 uM by Kinomescan method relative to control.
Assay [18] has as its target Homeodomain-interacting protein kinase 2 (Homo sapiens) (UniProt Q9H2X6). As to the kind of experiment: Inhibition of wild-type human partial length HIPK2 (M153 to S564 residues) expressed in mammalian expression system at 1 uM by Kinomescan method relative to control.
For assay [19], the target named is Tyrosine-protein kinase JAK1 (Homo sapiens) (UniProt P23458). As to the kind of experiment: Inhibition of wild-type human partial length JAK1 JH2 pseudokinase domain (R537 to D855 residues) expressed in mammalian expression system at 1 uM by Kinomescan method relative to control.
Assay [20] concerns the target Mitogen-activated protein kinase 9 (Homo sapiens) (UniProt P45984). In words: Inhibition of wild-type human full length JNK2 (M1 to Q382 residues) expressed in mammalian expression system at 1 uM by Kinomescan method relative to control.
Assay [21] has as its target Phosphatidylinositol 4-phosphate 5-kinase type-1 alpha (Homo sapiens) (UniProt Q99755). In words: Inhibition of wild-type human full length PIP5K1A (M1 to H562 residues) expressed in bacterial expression system at 1 uM by Kinomescan method relative to control.
For assay [22], the target named is cAMP-dependent protein kinase catalytic subunit beta (Homo sapiens) (UniProt P22694). In words: Inhibition of wild-type human full length PKAC-beta (M1 to F351 residues) expressed in bacterial expression system at 1 uM by Kinomescan method relative to control.
Assay [23] concerns the target Serine/threonine-protein kinase 33 (Homo sapiens) (UniProt Q9BYT3). As to the kind of experiment: Inhibition of wild-type human full length STK33 (M1 to L514 residues) expressed in bacterial expression system at 1 uM by Kinomescan method relative to control.
For assay [24], the target named is TGF-beta receptor type-2 (Homo sapiens) (UniProt P37173). As to the kind of experiment: Inhibition of wild-type human partial length TGFBR2 (I218 to K567 residues) expressed in bacterial expression system at 1 uM by Kinomescan method relative to control.
Assay [25] concerns the target Transient receptor potential cation channel subfamily M member 6 (Homo sapiens) (UniProt Q9BX84). As to the kind of experiment: Inhibition of wild-type human partial length TRPM6 (Q1723 to I1998 residues) expressed in mammalian expression system at 1 uM by Kinomescan method relative to control.
Assay [26] has as its target Testis-specific serine/threonine-protein kinase 3 (Homo sapiens) (UniProt Q96PN8). In words: Inhibition of wild-type human full length TSSK3 (M1 to T268 residues) expressed in mammalian expression system at 1 uM by Kinomescan method relative to control.
For assay [27], the target named is Wee1-like protein kinase (Homo sapiens) (UniProt P30291). As to the kind of experiment: Inhibition of wild-type human partial length WEE1 (M291 to K575 residues) expressed in bacterial expression system at 1 uM by Kinomescan method relative to control.

Chain of Testis-specific serine/threonine-protein kinase 3 (Homo sapiens) (Q96PN8 whole entry, the tested form may be a part): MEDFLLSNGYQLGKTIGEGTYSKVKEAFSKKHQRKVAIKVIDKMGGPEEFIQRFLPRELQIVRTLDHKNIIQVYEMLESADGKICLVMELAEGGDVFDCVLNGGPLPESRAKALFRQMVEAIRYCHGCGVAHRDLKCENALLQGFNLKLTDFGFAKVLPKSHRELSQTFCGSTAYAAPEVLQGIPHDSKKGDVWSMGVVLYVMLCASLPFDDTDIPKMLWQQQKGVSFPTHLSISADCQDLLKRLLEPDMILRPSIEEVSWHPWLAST
Chain of Tyrosine-protein kinase Lyn (Homo sapiens) (P07948 2-512 limits assumed): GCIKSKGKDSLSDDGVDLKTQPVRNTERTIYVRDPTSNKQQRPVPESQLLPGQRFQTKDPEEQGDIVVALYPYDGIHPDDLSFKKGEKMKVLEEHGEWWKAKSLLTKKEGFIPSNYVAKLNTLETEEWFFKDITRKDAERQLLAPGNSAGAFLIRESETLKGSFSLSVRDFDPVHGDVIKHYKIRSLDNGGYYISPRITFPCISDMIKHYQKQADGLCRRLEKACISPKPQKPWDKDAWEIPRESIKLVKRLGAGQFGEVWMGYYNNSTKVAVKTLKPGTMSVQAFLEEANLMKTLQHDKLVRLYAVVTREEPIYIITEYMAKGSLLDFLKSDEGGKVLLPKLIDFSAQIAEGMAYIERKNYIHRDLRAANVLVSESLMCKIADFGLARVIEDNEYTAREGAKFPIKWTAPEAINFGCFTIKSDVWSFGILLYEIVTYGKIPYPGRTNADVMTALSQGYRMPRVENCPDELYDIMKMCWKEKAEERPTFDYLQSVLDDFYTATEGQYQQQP
Chain of Phosphatidylinositol 4-phosphate 5-kinase type-1 alpha (Homo sapiens) (Q99755 whole entry, the tested form may be a part): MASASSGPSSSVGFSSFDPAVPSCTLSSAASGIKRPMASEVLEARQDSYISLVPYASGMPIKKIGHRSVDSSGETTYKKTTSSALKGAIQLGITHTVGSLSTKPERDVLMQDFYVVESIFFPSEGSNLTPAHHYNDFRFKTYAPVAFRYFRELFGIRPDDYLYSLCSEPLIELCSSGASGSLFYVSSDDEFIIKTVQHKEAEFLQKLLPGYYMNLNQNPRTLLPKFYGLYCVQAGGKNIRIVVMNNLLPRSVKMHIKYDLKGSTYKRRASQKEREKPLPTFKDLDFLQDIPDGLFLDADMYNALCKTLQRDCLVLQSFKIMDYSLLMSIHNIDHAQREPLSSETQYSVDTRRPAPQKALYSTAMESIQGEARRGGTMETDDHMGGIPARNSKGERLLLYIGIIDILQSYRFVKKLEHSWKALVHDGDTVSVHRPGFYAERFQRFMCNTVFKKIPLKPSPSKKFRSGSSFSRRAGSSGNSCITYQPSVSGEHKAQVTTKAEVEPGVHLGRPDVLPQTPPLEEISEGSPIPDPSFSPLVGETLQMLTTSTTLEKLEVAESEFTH
Chain of Serine/threonine-protein kinase TAO1 (Homo sapiens) (Q7L7X3 whole entry, the tested form may be a part): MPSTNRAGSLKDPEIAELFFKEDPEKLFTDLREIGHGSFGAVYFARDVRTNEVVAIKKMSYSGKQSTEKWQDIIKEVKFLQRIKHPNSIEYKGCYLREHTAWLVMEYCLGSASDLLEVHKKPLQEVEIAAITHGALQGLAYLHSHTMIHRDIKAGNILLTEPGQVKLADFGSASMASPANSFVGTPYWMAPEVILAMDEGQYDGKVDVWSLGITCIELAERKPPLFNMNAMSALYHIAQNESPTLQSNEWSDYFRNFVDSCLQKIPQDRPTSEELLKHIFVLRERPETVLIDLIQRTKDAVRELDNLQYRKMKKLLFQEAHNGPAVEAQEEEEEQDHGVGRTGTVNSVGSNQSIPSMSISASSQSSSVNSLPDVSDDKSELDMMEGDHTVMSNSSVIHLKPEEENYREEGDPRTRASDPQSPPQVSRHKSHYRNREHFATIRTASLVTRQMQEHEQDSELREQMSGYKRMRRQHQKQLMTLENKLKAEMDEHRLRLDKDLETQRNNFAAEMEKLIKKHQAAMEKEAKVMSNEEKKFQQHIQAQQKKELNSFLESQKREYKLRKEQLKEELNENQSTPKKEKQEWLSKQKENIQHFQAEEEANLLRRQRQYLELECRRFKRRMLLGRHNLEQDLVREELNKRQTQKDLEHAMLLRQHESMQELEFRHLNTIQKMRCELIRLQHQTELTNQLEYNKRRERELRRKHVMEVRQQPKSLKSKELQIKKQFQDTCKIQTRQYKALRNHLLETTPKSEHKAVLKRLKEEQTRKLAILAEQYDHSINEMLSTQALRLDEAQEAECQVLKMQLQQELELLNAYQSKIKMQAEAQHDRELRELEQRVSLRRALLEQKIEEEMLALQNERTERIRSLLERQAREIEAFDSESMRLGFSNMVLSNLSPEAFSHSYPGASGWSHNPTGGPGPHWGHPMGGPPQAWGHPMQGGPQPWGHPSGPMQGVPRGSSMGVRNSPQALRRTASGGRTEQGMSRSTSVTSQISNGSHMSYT

In the case of `O=C(Nc1cccc([C@H]2CCCN(c3ncnc4[nH]ccc34)C2)c1)Nc1ccccc1N1CCCC1`, the inhibition in assay [1] was 35%; in [2], 100%; in [3] it was 0.55%; in assay [4] it was 12%; in assay [5], 67%; in [6], 66%. For the same compound, the inhibition is 37% in [7]; 41% in assay [8]; 58% in [9]; 32% in assay [10]; 60% in assay [11]; 34% in [12]. In addition, the inhibition turned out to be 62% in [13] and 100% in assay [14].
With `O=C(Nc1cccc([C@@H]2CN(c3ncnc4[nH]ccc34)CCN2CCO)c1)Nc1c(F)cccc1N1CCCC1`, the inhibition in assay [15] turned out to be 6.1%; in assay [16] it was 96%; in assay [17], 78%; in assay [18], 100%; in assay [19] it was 75%; in [20], 100%. In addition, the inhibition in [21] was determined as 76%; in [22] it was 99%; in assay [23], 55%; in assay [24], 100%; in [25], 65%; in assay [26], 43%. In [27], this compound had an inhibition of 100%.

The term inhibition denotes the percentage by which the read-out fell short of the control. Higher therefore signals a response far below the control.
